# From publication PMC9214071 (Acta Pharmaceutica Sinica. B, 2022)
# Where “and” joins values, the source holds several entries; their conditions need not be identical. Equal entries are not always repeated. Where two headings read alike, the source gives them in different places. Marks after values point to notes of the source that are not given here.
# What was measured:
# [1] = target: T1, PAK4 (Homo sapiens, UniProt O96013); assay: PAK4 HTRF assay; format: biochemical; settings: for LE: Ligand efficiency = (−1.4 Log Ki)/(n heavy atoms); for LE / Ki / LLE: PAK4 Ki; for Ki: HTRF, average of two independent experiments; for LLE: Ligand lipophilicity efficiency = (−Log Ki) − (cLogP)
# [2] = in vitro; settings: CD-1, mouse, mouse liver microsomes, pH 7.4
# [3] = Liver microsomal stability assay, MLM
# [4] = test system: A549; assay: Wound-healing assay, A549 cell migration; format: cell-based, human; settings: 20 μmol/L
# [5] = target: PAK1 (Homo sapiens, UniProt Q13153); assay: PAK1 FRET-based Z'-Lyte assay; format: biochemical
# [6] = target: T1, PAK4; settings: read-out: PAK4 Ki (reported); cited from earlier work
# [7] = at least two duplicate experiments, SEM < ±20%
# T1 sequence (O96013 whole entry): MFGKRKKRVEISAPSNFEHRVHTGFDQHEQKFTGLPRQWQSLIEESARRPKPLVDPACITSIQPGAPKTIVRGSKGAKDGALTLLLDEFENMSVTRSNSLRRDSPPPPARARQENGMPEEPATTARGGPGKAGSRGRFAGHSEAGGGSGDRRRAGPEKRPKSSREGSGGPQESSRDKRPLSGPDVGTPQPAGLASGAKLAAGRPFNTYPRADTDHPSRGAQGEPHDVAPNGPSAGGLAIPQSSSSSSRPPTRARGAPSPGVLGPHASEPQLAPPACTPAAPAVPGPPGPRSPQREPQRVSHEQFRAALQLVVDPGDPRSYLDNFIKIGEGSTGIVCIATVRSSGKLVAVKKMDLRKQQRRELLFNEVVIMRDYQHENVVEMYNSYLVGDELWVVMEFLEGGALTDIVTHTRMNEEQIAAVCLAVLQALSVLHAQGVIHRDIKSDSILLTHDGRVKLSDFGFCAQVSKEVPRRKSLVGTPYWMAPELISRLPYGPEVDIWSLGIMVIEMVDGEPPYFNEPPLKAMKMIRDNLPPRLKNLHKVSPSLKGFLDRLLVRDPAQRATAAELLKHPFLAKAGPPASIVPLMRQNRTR
# Sequence of PAK1 (Q13153 whole entry): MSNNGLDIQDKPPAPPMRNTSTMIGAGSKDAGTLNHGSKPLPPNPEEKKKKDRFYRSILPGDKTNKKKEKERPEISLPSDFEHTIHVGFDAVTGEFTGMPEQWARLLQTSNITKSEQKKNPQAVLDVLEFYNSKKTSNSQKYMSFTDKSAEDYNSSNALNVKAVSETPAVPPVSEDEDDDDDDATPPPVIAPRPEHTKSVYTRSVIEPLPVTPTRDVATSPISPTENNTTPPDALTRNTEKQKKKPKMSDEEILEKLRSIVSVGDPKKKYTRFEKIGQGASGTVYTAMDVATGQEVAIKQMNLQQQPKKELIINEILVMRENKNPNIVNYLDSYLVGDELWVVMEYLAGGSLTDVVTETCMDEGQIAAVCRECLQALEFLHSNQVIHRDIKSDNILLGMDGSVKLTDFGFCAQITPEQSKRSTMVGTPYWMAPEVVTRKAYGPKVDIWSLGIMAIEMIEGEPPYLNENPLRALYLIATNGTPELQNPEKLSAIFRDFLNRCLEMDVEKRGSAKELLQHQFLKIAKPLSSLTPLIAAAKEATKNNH
smiles,measurement,setting,value
Nc1nccc(-n2ccc3ccc(C#CC4(O)CCCCC4)cc32)n1 [Compound 5],LE,[1],0.39
same,Ki,[1],66 nM
Nc1nccc(-n2ccc3cc(F)c(C#CC4(O)CCCCC4)cc32)n1 [Compound 5a],LE,[1],0.38
same,Ki,[1],82 nM
Nc1cc(-n2ccc3ccc(C#CC4(O)CCCCC4)cc32)nc(N)n1 [Compound 5b],LE,[1],0.33
same,Ki,[1],370 nM
Nc1cc(-n2ccc3ccc(C#CC4(O)CCCCC4)cc32)ncn1 [Compound 5c],LE,[1],0.36
same,Ki,[1],229 nM
Cc1cnc(N)nc1-n1ccc2ccc(C#CC3(O)CCCCC3)cc21 [Compound 5d],LE,[1],0.35
same,Ki,[1],182 nM
Nc1nccc(-n2ncc3ccc(C#CC4(O)CCCCC4)cc32)n1 [Compound 6],LE,[1],0.40
same,Ki,[1],40 nM
Nc1nccc(-n2ccc3ncc(C#CC4(O)CCCCC4)cc32)n1 [Compound 7],LE,[1],0.40
same,Ki,[1],36 nM
Nc1nccc(-n2ccc3cnc(C#CC4(O)CCCCC4)cc32)n1 [Compound 8],LE,[1],0.42
same,Ki,[1],13 nM
Nc1nccc(-n2ccc3ccc(C#CC4(O)CCCCC4)nc32)n1 [Compound 9],LE,[1],0.36
same,Ki,[1],183 nM
OC1(C#Cc2ccc3ccn(-c4ccnc(NCc5ccccc5)n4)c3c2)CCCCC1 [Compound 10],Ki,[1],623 nM
OC1(C#Cc2ccc3ccn(-c4ccnc(NCc5ccccc5F)n4)c3c2)CCCCC1 [Compound 11],Ki,[1],223 nM
OC1(C#Cc2ccc3ccn(-c4ccnc(NCc5ccccc5Cl)n4)c3c2)CCCCC1 [Compound 12],Ki,[1],355 nM
OC1(C#Cc2ccc3ccn(-c4ccnc(NCc5ccc(F)cc5)n4)c3c2)CCCCC1 [Compound 13],Ki,[1],291 nM
OC1(C#Cc2ccc3ccn(-c4ccnc(NCc5cccs5)n4)c3c2)CCCCC1 [Compound 14],Ki,[1],7450 nM
OC1(C#Cc2ccc3ccn(-c4ccnc(Nc5ccccc5)n4)c3c2)CCCCC1 [Compound 15],Ki,[1],217 nM
OC1(C#Cc2ccc3ccn(-c4ccnc(Nc5cccc(Cl)c5)n4)c3c2)CCCCC1 [Compound 16],Ki,[1],105 nM
O=[N+]([O-])c1cccc(Nc2nccc(-n3ccc4ccc(C#CC5(O)CCCCC5)cc43)n2)c1 [Compound 17],Ki,[1],157 nM
N#Cc1cccc(Nc2nccc(-n3ccc4ccc(C#CC5(O)CCCCC5)cc43)n2)c1 [Compound 18],Ki,[1],242 nM
Cc1cccc(Nc2nccc(-n3ccc4ccc(C#CC5(O)CCCCC5)cc43)n2)c1 [Compound 19],Ki,[1],212 nM
OC1(C#Cc2ccc3ccn(-c4ccnc(Nc5ccccc5F)n4)c3c2)CCCCC1 [Compound 20],Ki,[1],396 nM
OC1(C#Cc2ccc3ccn(-c4ccnc(Nc5ccccc5C(F)(F)F)n4)c3c2)CCCCC1 [Compound 21],Ki,[1],173 nM
Cc1ccccc1Nc1nccc(-n2ccc3ccc(C#CC4(O)CCCCC4)cc32)n1 [Compound 22],Ki,[1],709 nM
COc1ccc(Nc2nccc(-n3ccc4ccc(C#CC5(O)CCCCC5)cc43)n2)cc1 [Compound 24],Ki,[1],298 nM
OC1(C#Cc2ccc3ccn(-c4ccnc(Nc5ccc(F)c(Cl)c5)n4)c3c2)CCCCC1 [Compound 25],Ki,[1],189 nM
NS(=O)(=O)c1cccc(Nc2nccc(-n3ccc4ccc(C#CC5(O)CCCCC5)cc43)n2)c1 [Compound 26],Ki,[1],83 nM
COCCNc1nccc(-n2ccc3ccc(C#CC4(O)CCCCC4)cc32)n1 [Compound 28],Ki,[1],680 nM
CC(C)Nc1nccc(-n2ccc3ccc(C#CC4(O)CCCCC4)cc32)n1 [Compound 29],Ki,[1],1110 nM
Nc1nccc(-n2cc(C(=O)NCc3ccccc3)c3ccc(C#CC4(O)CCCCC4)cc32)n1 [Compound 30],Ki,[1],593 nM
Nc1nccc(-n2cc(C(=O)Nc3ccccc3)c3ccc(C#CC4(O)CCCCC4)cc32)n1 [Compound 31],Ki,[1],804 nM
Nc1nccc(-n2cc(C(=O)Nc3nccs3)c3ccc(C#CC4(O)CCCCC4)cc32)n1 [Compound 32],Ki,[1],243 nM
Nc1nccc(-n2cc(C(=O)Nc3cc[nH]n3)c3ccc(C#CC4(O)CCCCC4)cc32)n1 [Compound 33],Ki,[1],239 nM
Nc1ccn(C(=O)c2cn(-c3ccnc(N)n3)c3cc(C#CC4(O)CCCCC4)ccc23)n1 [Compound 34],Ki,[1],94 nM
Nc1nccc(-n2cc(C(=O)Nc3cc(O)[nH]n3)c3ccc(C#CC4(O)CCCCC4)cc32)n1 [Compound 35],Ki,[1],376 nM
Nc1nccc(-n2cc(C(=O)N3CCOCC3)c3ccc(C#CC4(O)CCCCC4)cc32)n1 [Compound 37],Ki,[1],119 nM
CN1CCN(C(=O)c2cn(-c3ccnc(N)n3)c3cc(C#CC4(O)CCCCC4)ccc23)CC1 [Compound 38],Ki,[1],38 nM
CN(C)C(=O)c1cn(-c2ccnc(N)n2)c2cc(C#CC3(O)CCCCC3)ccc12 [Compound 39],Ki,[1],82 nM
CNC(=O)c1cn(-c2ccnc(N)n2)c2cc(C#CC3(O)CCCCC3)ccc12 [Compound 40],Ki,[1],44 nM
NC(=O)c1cn(-c2ccnc(N)n2)c2cc(C#CC3(O)CCCCC3)ccc12 [Compound 41],half-life at 1 μmol/L,[2],23.7 min
same,Ki,[1],14 nM
same,liver clearance,[3],105.5 mL/min/kg
Nc1nccc(-n2cc(C(=O)N3CCNCC3)c3ccc(C#CC4(O)CCCCC4)cc32)n1 [Compound 42],"A549, effect of compounds on the cell mobility",[4],65% ^h
same,Ki,[5]; [7],4990 nM
same,LE,[1],0.35
same,LLE,[1],4.97
same,fold increase of inhibitory capacity compared to 37,"[1]; PAK4, relative to 37",18 fold
same,Ki,[1],6.6 nM
Nc1nccc(-n2cc(C(=O)N3CCC(N)CC3)c3ccc(C#CC4(O)CCCCC4)cc32)n1 [Compound 43],Ki,[5]; [7],1610 nM
same,LE,[1],0.29
same,LLE,[1],4.16
same,Ki,[1],42.6 nM
Nc1nccc(-n2cc(C(=O)NC3CCNCC3)c3ccc(C#CC4(O)CCCCC4)cc32)n1 [Compound 44],Ki,[5]; [7],4240 nM
same,LE,[1],0.32
same,LLE,[1],5.28
same,Ki,[1],8.3 nM
"Nc1nccc(-n2cc(C(=O)N3CCC[C@H](N)C3)c3ccc(C#CC4(O)CCCCC4)cc32)n1 [Compound 45, (S)-(3-Aminopiperidin-1-yl) (1-(2-aminopyrimidin-4-yl)-6-((1-hydroxycyclohexyl)ethynyl)-1H-indol-3-yl)methanone]",Ki,[5]; [7],2370 nM
same,LE,[1],0.30
same,LLE,[1],4.80
same,Ki,[1],25.6 nM
Nc1nccc(-n2cc(C(=O)N3CCC[C@@H](N)C3)c3ccc(C#CC4(O)CCCCC4)cc32)n1 [Compound 47],Ki,[5],6990 nM
same,Ki,[5]; [7],6990 nM
same,IC50,[1],6.3 nM
same,LE,[1],0.34
same,LLE,[1],5.65
same,Ki,[1],3.4 nM
Nc1nccc(-n2cc(C(=O)N[C@@H]3CCCNC3)c3ccc(C#CC4(O)CCCCC4)cc32)n1 [Compound 48],Ki,[5]; [7],7130 nM
same,LE,[1],0.33
same,LLE,[1],5.42
same,Ki,[1],5.6 nM
Nc1nccc(-n2cc(C(=O)N3CCC[C@@H](O)C3)c3ccc(C#CC4(O)CCCCC4)cc32)n1 [Compound 49],LE,[1],0.27
same,LLE,[1],4.12
same,factor of reduced activity relative to 47,"[1]; PAK4, relative to 47",60
same,Ki,[1],207 nM
Nc1nccc(-n2cc(C(=O)N[C@H]3CCNC3)c3ccc(C#CC4(O)CCCCC4)cc32)n1 [Compound 50],LE,[1],0.31
same,LLE,[1],4.40
same,Ki,[1],27.2 nM
Nc1nccc(-n2cc(C(=O)N3CC[C@@H](N)C3)c3ccc(C#CC4(O)CCCCC4)cc32)n1 [Compound 51],Ki,[5]; [7],6340 nM
same,LE,[1],0.31
same,LLE,[1],4.42
same,Ki,[1],25.5 nM
Nc1nccc(-n2cc(C(=O)N[C@@H]3CCNC3)c3ccc(C#CC4(O)CCCCC4)cc32)n1 [Compound 52],LE,[1],0.31
same,LLE,[1],5.48
same,Ki,[1],30.9 nM
Nc1nccc(-n2cc(C(=O)N3CC[C@H](N)C3)c3ccc(C#CC4(O)CCCCC4)cc32)n1 [Compound 53],Ki,[5]; [7],2870 nM
same,LE,[1],0.31
same,LLE,[1],4.47
same,Ki,[1],22.7 nM
C[C@@H]1CN(C(=O)c2cn(-c3ccnc(N)n3)c3cc(C#CC4(O)CCCCC4)ccc23)CCN1 [Compound 54],LE,[1],0.27
same,LLE,[1],3.53
same,Ki,[1],148 nM
same,fold less potency than 55 against PAK4,[1]; relative to 55,approximately 14 fold
"Nc1nccc(-n2cc(C(=O)N3CCNC(=O)C3)c3ccc(C#CC4(O)CCCCC4)cc32)n1 [Compound 56, 4-(1-(2-Aminopyrimidin-4-yl)-6-((1-hydroxycyclohexyl)ethynyl)-1H-indole-3-carbonyl)piperazin-2-one]",Ki,[5]; [7],4990 nM
same,LE,[1],0.31
same,LLE,[1],5.17
same,Ki,[1],18.1 nM
"COCCNc1nc2ccc(C#CC3(O)CCCCC3)cc2n1-c1ccnc(N)n1 [GNE-2861, reference compound]",Ki,[5]; [7],3130 nM
same,Ki,[1],35 nM and 35.3 nM
same,Ki,[6],3 nM
